What was measured:
GFP-14-3-3β = GFP-14-3-3β co-IP with LC-MS/MS, untreated GFP-14-3-3β versus GFP control (14-3-3 interactome); format: binding, human
Protocol: (§1) HeLa Kyoto cells expressing transiently transfected pEGFP(C1)-14-3-3β or pEGFP(C1) control plasmid, were incubated with 20 nM Calyculin A (# 9902 S, Cell Signaling Technology) for 12 min. Cells were washed twice on ice with cold PBS and after addition of 500 µL lysis buffer (100 mM NaCl, 10 mM Tris, 0.1% IGEPAL, 1 mM EDTA, 1 mM EGTA, 20 nM Calyculin A, 1x cOmplete Mini protease inhibitor cocktail (Sigma), 1 mM DTT, 1 mM MnCl2) cells were scraped from plates, lysed by 10 pushes through an injection needle (21 G, BD) and the insoluble fraction was pelleted by centrifugation (10 min, 10^4 rcf, 4 °C). Supernatants were then subjected to incubation with 1 µM recombinant phosphatase or buffer for 1 h at 30 °C. Next, we subjected samples to immunoprecipitation using α-GFP nanobodies covalently coupled to agarose beads (2 h, 4 °C, obtained from the EMBL PEPcore Core Facility). Beads were then washed three times with lysis buffer and samples were eluted in 1x LDS sample buffer (Thermo Fisher Scientific) by heating to 70 °C for 10 min.
(§2) The samples were then reduced with 25 mM dithiothreitol (10 min at 70 °C) and alkylated with 55 mM chloroacetamide (room temperature, 30 min, in the dark). Proteins were run on a precast 4–12% NuPAGE gel (ThermoFisher Scientific) for about 1 cm to concentrate the sample prior to in-gel tryptic digestion, which was performed according to the standard procedures. The peptides obtained were dried to completeness and resuspended in 12 µL of buffer A (0.1% FA), and 5 µL of sample were injected per MS measurement. The experiment was carried out in three independent replicates.
(§3) The samples were analyzed by LC-MS/MS on a Dionex Ultimate 3000 nano-HPLC coupled online to a Fusion Lumos Tribrid mass spectrometer (Thermo Fisher Scientific). Peptides were delivered to a trap column (75 µm × 2 cm, packed in-house with 5 µm C18 resin; Reprosil PUR AQ, Dr. Maisch) and washed using 0.1% FA at a flow rate of 5 µL/min for 10 min. Subsequently, peptides were transferred to an analytical column (75 µm × 45 cm, packed in-house with 3 µm C18 resin; Reprosil Gold) applying a flow rate of 300 nL/min and separated using a 60 min linear gradient from 4% to 32% LC solvent B (0.1% FA, 5% DMSO in ACN) in LC solvent A (0.1% FA in 5% DMSO). The eluate from the analytical column was sprayed via a stainless steel emitter (Thermo Fisher Scientific) at a source voltage of 2.1 kV into the mass spectrometer. The transfer capillary was heated to 275 °C. The Fusion Lumos was operated in positive ionization mode and data-dependent acquisition (DDA), automatically switching between MS1 and MS2 spectrum acquisition. Full scan MS1 spectra were recorded in the Orbitrap from 360 to 1300 m/z at a resolution of 60k (automatic gain control (AGC) target value of 4e5 charges, maximum injection time (maxIT) of 50 ms). Up to 20 peptide precursors were isolated (isolation window, 1.7 m/z; maximum injection time, 25 ms; and AGC value, 1e5), fragmented by high-energy collision-induced dissociation (HCD) using 30% normalized collision energy (NCE), and analyzed at a resolution of 15k in the Orbitrap. Precursor ions that were singly charged, unassigned, or with charge states >6+ were excluded. The dynamic exclusion duration of fragmented precursor ions was 20 s.
(§4) Peptide and protein identification and LFQ were performed using MaxQuant software (version 1.6.1.0)[64] by searching the data against all canonical protein sequences as annotated in the Swissprot reference database (human proteins only, 20193 entries, downloaded 22 March 2016, internally annotated with PFAM domains) using the embedded search engine Andromeda[65]. The MaxQuant search was performed using two variable modifications; oxidation of methionine and N-terminal protein acetylation. Carbamidomethylation on cysteines was specified as a fixed modification. Trypsin (Trypsin/P) was specified as the proteolytic enzyme with up to two allowed missed cleavage sites.

[1] = test system: GFP-14-3-3β and its binding proteins; test: GFP-14-3-3β co-IP with LC-MS/MS label-free quantification, untreated versus PP1c-treated; design: species or system human
Protocol: as §1, §2, §3, §4

[2] = untreated vs GFP, LFQ intensities, 3 replicates each
[3] = PP1 vs untreated, LFQ intensities, 3 replicates each
[4] = pairwise comparison untreated vs GFP
[5] = pairwise comparison PP1 vs untreated
[6] = GFP-14-3-3β co-IP LC-MS/MS, untreated vs GFP, student's t-test, label-free quantification, 3 replicates each
[7] = GFP-14-3-3β co-IP LC-MS/MS, PP1 vs untreated, student's t-test, label-free quantification, 3 replicates each
[8] = untreated vs GFP, LFQ intensities, replicates 1-3
[9] = PP1 vs untreated, LFQ intensities, replicates 1-3
[10] = untreated vs GFP, label-free quantification
[11] = PP1 vs untreated, label-free quantification
[12] = pairwise comparison untreated GFP-14-3-3β vs GFP, student's t-test, 3 replicates each, LC-MS/MS label-free quantification
[13] = pairwise comparison PP1 vs untreated, student's t-test, 3 replicates each, LC-MS/MS label-free quantification

HNRNPAB
Difference (log2), untreated vs GFP (GFP-14-3-3β; [2]): 0.1502 log2 | Difference (log2), PP1 vs untreated [1, 3]: 0.4916 log2

HNRNPK
Difference (log2), untreated vs GFP (GFP-14-3-3β; [4]): 0.6096 log2 | Difference (log2), PP1 vs untreated [1, 5]: 0.05533 log2

HNRNPU
Difference (log2), untreated vs GFP (GFP-14-3-3β; [6]): 0.9402 log2 | Difference (log2), PP1 vs untreated [1, 7]: -0.3998 log2

HSP90AB1
Difference (log2), untreated vs GFP (GFP-14-3-3β; [8]): 0.1843 log2 | Difference (log2), PP1 vs untreated [1, 9]: -0.9521 log2

HSPA1B;HSPA1A
Difference (log2), untreated vs GFP (GFP-14-3-3β; [8]): 0.2148 log2 | Difference (log2), PP1 vs untreated [1, 9]: -0.7937 log2

HSPA5
Difference (log2), untreated vs GFP (GFP-14-3-3β; [6]): -0.3432 log2 | Difference (log2), PP1 vs untreated [1, 7]: -0.6263 log2

HSPA8
Difference (log2), untreated vs GFP (GFP-14-3-3β; [6]): -0.3706 log2 | Difference (log2), PP1 vs untreated [1, 7]: -0.3347 log2

HSPA9
Difference (log2), untreated vs GFP (GFP-14-3-3β; [8]): -0.4978 log2 | Difference (log2), PP1 vs untreated [1, 9]: -1.091 log2

HSPB1
Difference (log2), untreated vs GFP (GFP-14-3-3β; [6]): 0.3674 log2 | Difference (log2), PP1 vs untreated [1, 7]: -0.1455 log2

IFI16
Difference (log2), untreated vs GFP (GFP-14-3-3β; [10]): 0.868 log2 | Difference (log2), PP1 vs untreated [1, 11]: 0.961 log2

ILF2
Difference (log2), untreated vs GFP (GFP-14-3-3β; [4]): 3.657 log2 | Difference (log2), PP1 vs untreated [1, 5]: -0.07574 log2

IMPDH2
Difference (log2), untreated vs GFP (GFP-14-3-3β; [10]): -1.172 log2 | Difference (log2), PP1 vs untreated [1, 11]: 1.157 log2

IQGAP1
Difference (log2), untreated vs GFP (GFP-14-3-3β; [6]): 0.3872 log2 | Difference (log2), PP1 vs untreated [1, 7]: -0.359 log2

ITPR3
Difference (log2), untreated vs GFP (GFP-14-3-3β; [4]): -0.007222 log2 | Difference (log2), PP1 vs untreated [1, 5]: 0.1762 log2

KARS
Difference (log2), untreated vs GFP (GFP-14-3-3β; [6]): -0.1156 log2 | Difference (log2), PP1 vs untreated [1, 7]: -0.3502 log2

KHDRBS1
Difference (log2), untreated vs GFP (GFP-14-3-3β; [8]): -0.7979 log2 | Difference (log2), PP1 vs untreated [1, 9]: -0.7597 log2

KIAA0930
Difference (log2), untreated vs GFP (GFP-14-3-3β; [12]): 3.752 log2 | Difference (log2), PP1 vs untreated [1, 13]: -2.858 log2

KIAA1671
Difference (log2), untreated vs GFP (GFP-14-3-3β; [6]): 1.934 log2 | Difference (log2), PP1 vs untreated [1, 7]: -0.2284 log2

LAMA5
Difference (log2), untreated vs GFP (GFP-14-3-3β; [2]): -1.96 log2 | Difference (log2), PP1 vs untreated [1, 3]: 0.4607 log2

LANCL1
Difference (log2), untreated vs GFP (GFP-14-3-3β; [8]): -0.5316 log2 | Difference (log2), PP1 vs untreated [1, 9]: -1.493 log2

LARP4
Difference (log2), untreated vs GFP (GFP-14-3-3β; [10]): -0.1959 log2 | Difference (log2), PP1 vs untreated [1, 11]: 0.983 log2

LARP4B
Difference (log2), untreated vs GFP (GFP-14-3-3β; [10]): 0.9646 log2 | Difference (log2), PP1 vs untreated [1, 11]: 0.8043 log2

LARS
Difference (log2), untreated vs GFP (GFP-14-3-3β; [4]): -0.7263 log2 | Difference (log2), PP1 vs untreated [1, 5]: 0.05859 log2

LGALS1
Difference (log2), untreated vs GFP (GFP-14-3-3β; [2]): -0.7235 log2 | Difference (log2), PP1 vs untreated [1, 3]: 0.4051 log2

LGALS3
Difference (log2), untreated vs GFP (GFP-14-3-3β; [8]): 0.3389 log2 | Difference (log2), PP1 vs untreated [1, 9]: -0.9155 log2

LMO7
Difference (log2), untreated vs GFP (GFP-14-3-3β; [12]): 0.9984 log2 | Difference (log2), PP1 vs untreated [1, 13]: -2.202 log2

MAP7D1
Difference (log2), untreated vs GFP (GFP-14-3-3β; [10]): 0.3595 log2 | Difference (log2), PP1 vs untreated [1, 11]: 0.8008 log2

MARK1
Difference (log2), untreated vs GFP (GFP-14-3-3β; [12]): 5.5786 log2 | Difference (log2), PP1 vs untreated [1, 13]: -2.037 log2

MARK2
Difference (log2), untreated vs GFP (GFP-14-3-3β; [12]): 5.827 log2 | Difference (log2), PP1 vs untreated [1, 13]: -2.124 log2

MARK3
Difference (log2), untreated vs GFP (GFP-14-3-3β; [12]): 4.732 log2 | Difference (log2), PP1 vs untreated [1, 13]: -2.088 log2

MAT2A
Difference (log2), untreated vs GFP (GFP-14-3-3β; [12]): 0.8108 log2 | Difference (log2), PP1 vs untreated [1, 13]: -2.199 log2

MCM7
Difference (log2), untreated vs GFP (GFP-14-3-3β; [10]): 0.04561 log2 | Difference (log2), PP1 vs untreated [1, 11]: 1.01 log2

MED1
Difference (log2), untreated vs GFP (GFP-14-3-3β; [10]): 0.09613 log2 | Difference (log2), PP1 vs untreated [1, 11]: 1.148 log2

MGST3
Difference (log2), untreated vs GFP (GFP-14-3-3β; log2 difference, pairwise comparison untreated vs GFP, label-free quantification, 3 replicates each): 0.5005 | Difference (log2), PP1 vs untreated ([1]; log2 difference, pairwise comparison PP1 vs untreated, label-free quantification, 3 replicates each): 1.301

Reference: article PMC7367873, “Dissecting the sequence determinants for dephosphorylation by the catalytic subunits of phosphatases PP1 and PP2A” (Nature Communications, 2020)
